Values quoted from earlier work in patent publication US20080081070A1, “PHARMACEUTICAL FORMULATION WITH ENHANCED SOLUBILITY FOR THE DELIVERY OF CORTICOSTEROIDS” (priority 2006, published 2008).
Values after ≈ are worked out from the molar mass of the structure shown. Each block holds one compound with its values, some of them ahead of it.

Key:
[1] = animal studies
[2] = not given; remark: listed apart in the source
[3] = tested on: mild and moderately active Crohn's disease
[4] = oral dosing of radiolabeled drug, humans

SMILES: CCC(=O)O[C@]1(C(=O)O)[C@H](C)C[C@H]2[C@@H]3C[C@H](F)C4=CC(=O)C=C[C@]4(C)[C@@]3(F)[C@@H](O)C[C@@]21C [17-β-carboxylic acid]
pharmacologic activity [1]: negligible

SMILES: CCC(=O)O[C@]1(C(=O)SCF)[C@H](C)C[C@H]2[C@@H]3C[C@H](F)C4=CC(=O)C=C[C@]4(C)[C@@]3(F)[C@@H](O)C[C@@]21C [Fluticasone propionate, S-fluoromethyl-6-α-9-difluoro-11-β-hydroxy-16-α-methyl-3-oxoandrosta-1,4-diene-17-β-carbothioate, 17-propionate]
solubility in 95% ethanol (95% ethanol): slightly soluble
solubility in dimethyl sulfoxide (dimethyl sulfoxide): freely soluble
solubility in dimethyl-formamide (dimethyl-formamide): freely soluble
solubility in methanol (methanol): slightly soluble
solubility in water (water): 0.14 µg/mL (≈ 0.28 µM)
total blood clearance ([2]; average, predominantly through the liver): 1,093 mL/min
absorption [2, 4]: low
extraction from plasma [2, 4]: highly extracted
oral bioavailability [2, 4]: negligible
excretion of injected radioactivity calculated from whole body data ([3]; after three weeks oral treatment, before treatment 28 (21%), p less than 0.05): 1.4 (0.7%)
plasma cortisol values ([3]; three weeks oral treatment): no changes
leucocyte scan images ([3]; three weeks oral treatment, twelve patients): improved (seven patients) or unchanged (five patients)

clinical features of hypercortisolism compared with prednisone (Crohn's disease; clinical studies): fewer
likelihood of maintaining a normal plasma cortisol level compared with prednisone (Crohn's disease; clinical studies): greater likelihood
bone mineral density compared with prednisone (Crohn's disease; two-year study): decreased less
SMILES: CCCC1O[C@@H]2C[C@H]3[C@@H]4CCC5=CC(=O)C=C[C@]5(C)[C@H]4[C@@H](O)C[C@]3(C)[C@]2(C(=O)CO)O1 (stereo partly shown) [budesonide]
